Test results published in ChEMBL document CHEMBL1909046, “DrugMatrix in vitro pharmacology data”.

Assays:
Cytochrome P450 2E1 = Cytochrome P450 2E1 (Homo sapiens, UniProt P05181); conditions: bti-tn-5b1-4; further: in other assays of this panel Not Active means under 50% inhibition at 10 µM
[1] = molecular target: Sodium-dependent noradrenaline transporter (Homo sapiens, UniProt P23975); assay: DRUGMATRIX: Norepinephrine Transporter radioligand binding (ligand: [125I] RTI-55); assay type: cell membranes, MDCK, Membrane; conditions: mdck; Not Active = under 50% inhibition at 10 µM
Sodium-dependent noradrenaline transporter, sequence (P23975 whole entry): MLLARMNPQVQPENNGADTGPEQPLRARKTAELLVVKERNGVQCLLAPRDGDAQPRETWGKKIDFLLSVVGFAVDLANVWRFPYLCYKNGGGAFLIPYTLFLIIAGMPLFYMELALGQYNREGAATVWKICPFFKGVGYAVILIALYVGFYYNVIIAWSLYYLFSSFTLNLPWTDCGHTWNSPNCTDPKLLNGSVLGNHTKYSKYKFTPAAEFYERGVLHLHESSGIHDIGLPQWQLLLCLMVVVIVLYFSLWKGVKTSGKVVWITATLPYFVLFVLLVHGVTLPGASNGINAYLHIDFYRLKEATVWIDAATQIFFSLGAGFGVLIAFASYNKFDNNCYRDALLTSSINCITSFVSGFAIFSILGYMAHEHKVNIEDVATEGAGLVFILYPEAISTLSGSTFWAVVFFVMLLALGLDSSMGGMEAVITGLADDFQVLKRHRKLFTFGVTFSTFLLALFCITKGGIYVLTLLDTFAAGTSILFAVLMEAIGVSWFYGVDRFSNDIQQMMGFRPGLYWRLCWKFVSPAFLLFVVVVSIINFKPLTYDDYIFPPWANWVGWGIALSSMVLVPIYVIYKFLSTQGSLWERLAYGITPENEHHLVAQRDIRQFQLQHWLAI

[2] = molecular target: 5-hydroxytryptamine receptor 2B (Homo sapiens, UniProt P41595); assay type: cell membranes, CHO-K1, Membrane; conditions: cho-k1; further: in other assays of this panel Not Active means under 50% inhibition at 10 µM
5-hydroxytryptamine receptor 2B, sequence (P41595 whole entry): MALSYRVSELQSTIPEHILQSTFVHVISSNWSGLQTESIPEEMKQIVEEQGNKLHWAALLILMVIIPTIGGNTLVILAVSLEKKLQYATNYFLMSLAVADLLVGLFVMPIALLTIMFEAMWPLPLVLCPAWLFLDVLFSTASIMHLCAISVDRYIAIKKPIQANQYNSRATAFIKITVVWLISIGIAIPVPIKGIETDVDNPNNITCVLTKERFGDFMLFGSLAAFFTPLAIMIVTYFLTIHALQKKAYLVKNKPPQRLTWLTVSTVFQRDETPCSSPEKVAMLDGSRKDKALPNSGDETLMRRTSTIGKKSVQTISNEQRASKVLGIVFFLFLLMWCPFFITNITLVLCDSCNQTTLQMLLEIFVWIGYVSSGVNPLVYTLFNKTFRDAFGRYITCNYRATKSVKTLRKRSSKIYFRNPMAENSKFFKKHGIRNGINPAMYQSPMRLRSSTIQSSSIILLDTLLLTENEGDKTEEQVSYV

Cytochrome P450 1A2 = molecular target: T1, Cytochrome P450 1A2 (Homo sapiens, UniProt P05177); conditions: bti-tn-5b1-4; further: in other assays of this panel Not Active means under 50% inhibition at 10 µM
T1 sequence (P05177 whole entry): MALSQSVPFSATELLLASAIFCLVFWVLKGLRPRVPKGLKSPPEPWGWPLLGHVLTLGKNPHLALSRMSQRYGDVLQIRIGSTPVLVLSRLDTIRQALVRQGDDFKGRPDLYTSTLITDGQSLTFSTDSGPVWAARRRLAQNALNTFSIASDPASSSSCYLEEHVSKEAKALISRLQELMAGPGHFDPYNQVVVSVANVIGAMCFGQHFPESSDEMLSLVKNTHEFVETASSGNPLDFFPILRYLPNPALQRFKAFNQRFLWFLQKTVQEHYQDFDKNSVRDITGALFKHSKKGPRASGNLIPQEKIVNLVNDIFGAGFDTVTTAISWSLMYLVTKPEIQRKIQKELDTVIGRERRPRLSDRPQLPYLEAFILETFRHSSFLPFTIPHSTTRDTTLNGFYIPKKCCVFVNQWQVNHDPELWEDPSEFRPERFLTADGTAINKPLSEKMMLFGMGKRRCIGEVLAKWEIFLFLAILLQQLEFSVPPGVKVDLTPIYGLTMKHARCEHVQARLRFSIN

[3] = molecular target: Voltage-gated inwardly rectifying potassium channel KCNH2 (Homo sapiens, UniProt Q12809); conditions: hek293; further: in other assays of this panel Not Active means under 50% inhibition at 10 µM
Voltage-gated inwardly rectifying potassium channel KCNH2, sequence (Q12809 whole entry): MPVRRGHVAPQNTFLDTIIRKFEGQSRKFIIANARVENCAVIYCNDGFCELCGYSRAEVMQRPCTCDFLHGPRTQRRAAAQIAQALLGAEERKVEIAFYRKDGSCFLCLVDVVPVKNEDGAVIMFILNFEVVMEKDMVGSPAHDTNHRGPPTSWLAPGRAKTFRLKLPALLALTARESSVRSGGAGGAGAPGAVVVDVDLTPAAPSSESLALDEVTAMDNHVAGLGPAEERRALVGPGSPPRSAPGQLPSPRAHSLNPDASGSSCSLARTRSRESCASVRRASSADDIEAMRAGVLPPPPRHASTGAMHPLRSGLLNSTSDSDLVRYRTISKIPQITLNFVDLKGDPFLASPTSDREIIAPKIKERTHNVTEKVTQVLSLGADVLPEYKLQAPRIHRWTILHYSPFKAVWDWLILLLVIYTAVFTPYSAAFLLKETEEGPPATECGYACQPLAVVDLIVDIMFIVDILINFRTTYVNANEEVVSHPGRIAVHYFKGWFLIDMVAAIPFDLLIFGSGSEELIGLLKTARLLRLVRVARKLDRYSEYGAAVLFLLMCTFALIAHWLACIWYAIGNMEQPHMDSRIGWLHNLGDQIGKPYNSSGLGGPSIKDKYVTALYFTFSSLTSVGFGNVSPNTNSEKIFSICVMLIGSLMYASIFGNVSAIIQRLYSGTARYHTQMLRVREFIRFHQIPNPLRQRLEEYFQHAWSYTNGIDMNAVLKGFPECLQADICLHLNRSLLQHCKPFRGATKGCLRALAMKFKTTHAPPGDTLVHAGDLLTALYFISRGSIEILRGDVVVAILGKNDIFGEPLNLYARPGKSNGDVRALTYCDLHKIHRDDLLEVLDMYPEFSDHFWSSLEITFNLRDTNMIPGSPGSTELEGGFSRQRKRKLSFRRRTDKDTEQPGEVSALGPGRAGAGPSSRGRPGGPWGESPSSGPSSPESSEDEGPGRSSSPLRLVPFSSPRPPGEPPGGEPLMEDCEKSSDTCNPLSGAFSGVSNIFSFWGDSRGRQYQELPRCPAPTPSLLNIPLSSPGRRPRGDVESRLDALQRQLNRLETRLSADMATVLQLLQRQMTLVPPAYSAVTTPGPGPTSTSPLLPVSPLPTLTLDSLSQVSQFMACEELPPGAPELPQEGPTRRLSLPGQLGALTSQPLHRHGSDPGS

Cytochrome P450 2E1, sequence (P05181 whole entry): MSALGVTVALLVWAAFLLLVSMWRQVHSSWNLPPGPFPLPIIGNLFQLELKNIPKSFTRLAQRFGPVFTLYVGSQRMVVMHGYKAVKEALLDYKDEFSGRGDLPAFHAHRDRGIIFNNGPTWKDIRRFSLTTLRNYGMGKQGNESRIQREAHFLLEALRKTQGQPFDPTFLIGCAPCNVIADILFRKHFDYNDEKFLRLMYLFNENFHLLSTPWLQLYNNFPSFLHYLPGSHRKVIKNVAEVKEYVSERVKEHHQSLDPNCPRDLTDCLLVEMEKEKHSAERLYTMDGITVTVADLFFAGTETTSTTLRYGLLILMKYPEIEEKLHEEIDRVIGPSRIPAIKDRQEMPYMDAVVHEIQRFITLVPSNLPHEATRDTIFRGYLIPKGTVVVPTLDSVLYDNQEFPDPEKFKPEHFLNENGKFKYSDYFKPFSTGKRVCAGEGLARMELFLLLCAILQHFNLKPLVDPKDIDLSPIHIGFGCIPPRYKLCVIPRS

CN1C(=O)OC(C)(C)C1=O [TRIMETHADIONE]
Not Active: IC50 (Cytochrome P450 2E1) | Ki (Cytochrome P450 2E1) | IC50 [1] | IC50 [2] | IC50 (Cytochrome P450 1A2) | Ki (Cytochrome P450 1A2) | IC50 [3] | Ki [3]

CCC(C)(C)C(=O)O[C@H]1C[C@@H](C)C=C2C=C[C@H](C)[C@H](CC[C@@H]3C[C@@H](O)CC(=O)O3)[C@H]21 [SIMVASTATIN]
Not Active: IC50 [2]

Cc1ccc(S(=O)(=O)NC(=O)NN2CCCCCC2)cc1 [TOLAZAMIDE]
Not Active: IC50 [1] | IC50 [2] | IC50 [3] | Ki [3]

CC(Cl)(Cl)Cl [TRICHLOROETHANE]
Not Active: IC50 (Cytochrome P450 2E1) | Ki (Cytochrome P450 2E1) | IC50 [1] | IC50 [2] | IC50 (Cytochrome P450 1A2) | Ki (Cytochrome P450 1A2) | IC50 [3] | Ki [3]

CC(C)(C)NC[C@H](O)COc1cccc2c1CCCC2=O [LEVOBUNOLOL]
Not Active: IC50 (Cytochrome P450 2E1) | Ki (Cytochrome P450 2E1) | IC50 [1] | IC50 [2] | IC50 (Cytochrome P450 1A2) | Ki (Cytochrome P450 1A2) | IC50 [3] | Ki [3]

Cc1cccc(C)c1NC(=O)C(C)N (centres undefined) [TOCAINIDE]
Not Active: IC50 (Cytochrome P450 2E1) | Ki (Cytochrome P450 2E1) | IC50 [1] | IC50 [2] | IC50 (Cytochrome P450 1A2) | Ki (Cytochrome P450 1A2) | IC50 [3] | Ki [3]

CO[C@@]12[C@H](COC(N)=O)C3=C(C(=O)C(C)=C(N)C3=O)N1C[C@@H]1N[C@@H]12 [MITOMYCIN]
Not Active: IC50 (Cytochrome P450 2E1) | Ki (Cytochrome P450 2E1) | IC50 [1] | IC50 [2] | IC50 (Cytochrome P450 1A2) | Ki (Cytochrome P450 1A2) | IC50 [3] | Ki [3]

CN1C[C@H](CNC(=O)OCc2ccccc2)C[C@@H]2c3cccc4c3c(cn4C)C[C@H]21 [METERGOLINE]
Not Active: IC50 (Cytochrome P450 2E1) | Ki (Cytochrome P450 2E1) | IC50 (Cytochrome P450 1A2) | Ki (Cytochrome P450 1A2) | IC50 [3] | Ki [3]

Cc1[nH]c(=O)c(C#N)cc1-c1ccncc1 [MILRINONE]
Not Active: IC50 (Cytochrome P450 2E1) | Ki (Cytochrome P450 2E1) | IC50 [1] | IC50 [2] | IC50 (Cytochrome P450 1A2) | Ki (Cytochrome P450 1A2)

O=C1CC[C@@]2(O)[C@H]3Cc4ccc(O)c5c4[C@@]2(CCN3CC2CC2)[C@H]1O5 [NALTREXONE]
Not Active: IC50 (Cytochrome P450 2E1) | Ki (Cytochrome P450 2E1) | IC50 [1] | IC50 [2] | IC50 (Cytochrome P450 1A2) | Ki (Cytochrome P450 1A2) | IC50 [3] | Ki [3]

CC(=O)O[C@]1(C(C)=O)CC[C@H]2[C@@H]3C[C@H](C)C4=CC(=O)CC[C@]4(C)[C@H]3CC[C@@]21C [MEDROXYPROGESTERONE ACETATE]
Not Active: IC50 (Cytochrome P450 2E1) | Ki (Cytochrome P450 2E1) | IC50 [1] | IC50 [2] | IC50 (Cytochrome P450 1A2) | Ki (Cytochrome P450 1A2) | IC50 [3] | Ki [3]

Cc1cn([C@H]2C=C[C@@H](CO)O2)c(=O)[nH]c1=O [STAVUDINE]
Not Active: IC50 (Cytochrome P450 2E1) | Ki (Cytochrome P450 2E1) | IC50 [1] | IC50 [2] | IC50 (Cytochrome P450 1A2) | Ki (Cytochrome P450 1A2) | IC50 [3] | Ki [3]

Cc1cnc(NC(=O)C2=C(O)c3ccccc3S(=O)(=O)N2C)s1 [MELOXICAM]
Not Active: IC50 (Cytochrome P450 2E1) | Ki (Cytochrome P450 2E1) | IC50 [1] | IC50 [2] | IC50 (Cytochrome P450 1A2) | Ki (Cytochrome P450 1A2) | IC50 [3] | Ki [3]

CC(O)C(=O)O (centres undefined) [LACTIC ACID]
Not Active: IC50 (Cytochrome P450 2E1) | Ki (Cytochrome P450 2E1) | IC50 [1] | IC50 [2] | IC50 (Cytochrome P450 1A2) | Ki (Cytochrome P450 1A2) | IC50 [3] | Ki [3]

C1CCN2C[C@@H]3C[C@@H](CN4CCCC[C@@H]34)[C@H]2C1 [SPARTEINE]
Not Active: IC50 [1] | IC50 [2] | IC50 [3] | Ki [3]

CC(N)C12CC3CC(CC(C3)C1)C2 (centres undefined) [RIMANTADINE]
Not Active: IC50 (Cytochrome P450 2E1) | Ki (Cytochrome P450 2E1) | IC50 [1] | IC50 [2] | IC50 (Cytochrome P450 1A2) | Ki (Cytochrome P450 1A2) | IC50 [3] | Ki [3]
